Earlier results on two compounds are cited in US20250387524A1, “METHOD AND SYSTEM FOR THE PRODUCTION OF DISINFECTION AND/OR STERILISATION SOLUTIONS” (UNIVERSITAT JAUME I, priority 2022, published 2025).

SMILES strings stand for the structures.

The conditions of this data set: EU-US approved.

In the case of `O=Cc1ccccc1C=O` [Orto-phtalaldehyde], the Minimum biocidal concentration is given as 0.55%.
Regarding `O=CCCCC=O` [Glutaraldehyde], the Minimum biocidal concentration is reported as at least 2%.
